We go through 2 molecules from PMC11530130, “Peripherally restricted PICK1 inhibitor mPD5 ameliorates pain behaviors in murine inflammatory and neuropathic pain models” (JCI Insight, 2024).

Values joined by “and” are separate entries in the source; they are usually repeats but may differ in a detail not shown here. Equal entries are not always repeated.

Type in all cases: in vivo, mouse
For assay [1], the system named is mice, CIBP model (NCTC 2472 cell inoculation). The assay can be described thus: Cancer-induced bone pain (CIBP) model, von Frey. Particulars: for effect on PWT: CIBP, female mice. On the procedure: (§1) solution (0.05 mg/kg) injected s.c. 30 min before surgery (10 μL/g). For surgery, mice were anaesthetised with ketamine (100 mg/kg, i.p.) and xylazine (10 mg/kg, i.p.) (volume 10 µL/g) with 100 μL of 1% xylocaine solution infiltrated at the site of the incision. The distal trifurcation of the sciatic nerve was identified, and the tibial and common peroneal branches were ligated with polypropylene nonabsorbable 6-0 sutures (Ethicon) and 1 mm was cut out, leaving the sural branch intact. The wound was closed with sutures, and the animals were allowed to recover and returned to their cages. Two subcutaneous injections of buprenorphine (0.05 mg/kg) were performed with an 8 to 12 hours delay decreasing pain due to the surgery […]
(§2) The remaining SNI pain experiments were performed in-house using the following procedure.
(§3) SNI surgery was performed on the left hindleg of C57BL/6J male and female mice (Janvier, France) under 2% isoflurane anaesthesia. Skin on the lateral surface was incised between hip and knee followed by lengthwise division of the biceps femoris muscle leading to exposure of the three branches of the sciatic nerve. Sural branch was left intact, while the peroneal and tibial branches were ligated with a single surgical knot and axotomized distally of the ligation.
(§4) Wounds were closed with surgical glue or medical clips and animals were monitored daily for signs of stress or discomfort, but in all cases recovered uneventfully.
(§5) Induction of Diabetic neuropathy (STZ model).
(§6) Diabetes was induced by a single i.p. injection of […] streptozocin (STZ) solution (100 μL/10 g, Sigma-Aldrich S0130, batch #WXBB7152V) in male seven-week-old C57BL/6J (Charles River) mice. Glycemia was tested before, and seven days after injection. All injected mice had blood glucose concentration >350 mg/dL from day seven and were used for analgesic testing of the compounds from day 14. One mouse had to be euthanized at seven days post injection. This experiment was performed by Phenotype Expertise, Marseilles, France - Pain and CNS behaviour CRO under supervision of Stéphane Gaillard, PhD (CEO).
(§7) Induction of cancer induced bone pain (CIBP model).
(§8) Osteosarcoma cell line NCTC 2472 (American Type Culture Collection, CCL-11TM) was cultured for two weeks prior to surgery in NCTC-135 medium (Sigma-Aldrich, Denmark) supplemented with sodium hydrogen carbonate and 10% equine serum (Sigma-Aldrich, Denmark). On the day of surgery, cells were washed with PBS and incubated with 3 mL trypsin-EDTA for five min followed by centrifugation (2800 rpm, 3 min). Supernatant was removed, and cell pellet resuspended in PBS to obtain a cell density of 10^7 cells/mL.
(§9) Two separate cohorts of female C3H/HeNHsd mice (Envigo, Netherlands) of 7-8 weeks, were anaesthetized with 6.25 mg/kg xylazine (Rompun vet, 20 mg/mL, Bayer, KVP Pharma + Veterinär Produkte GmbH, Germany, Batch: KV02BHF) and 43.75 mg/kg ketamine (Ketaminol vet, 100 mg/mL, MSD Animal Health, AN Boxmeer, The Netherlands, Batch:
(§10) A140A01) and received 1.0-1.2% isoflurane (1000 mg/g isoflurane, Attane vet, ScanVet, Piramal Critical Care Ltd., UK, Batch: G123J18B) during surgery. The mouse was placed on a 37 °C heating pad. Both hind legs were shaved, and a small horizontal incision was made under the knee followed by a vertical incision of approximately 0.5 cm until the patellar tendon was exposed. The patellar tendon was moved to the lateral side exposing the distal epiphysis of the femur. A hole was made in the middle of the distal epiphysis by gently pushing a 30 G needle (0.3x12 mm, 30 Gx1/2”, Luer-Lock, CHIRANA T. Injecta, CH30012) through the bone while rotating. The position of the needle was confirmed by X-ray imaging (IVIS Lumina XR Apparatus, Caliper Life Sciences, Belgium). Following resuspension, 10 μL, corresponding to […]
(§11) […] NCTC 2472 cells or PBS (sham mice), was injected in the bone marrow cavity with an insulin syringe (1 mL Luer, BD PlastipakTM, 303172) attached to a 30 G needle and left in the […]
(§12) femur for one min. […]

Assay [2] shares this test system. In words: CIBP model, limb use score. Particulars: for limb use score (Fig S7B): CIBP mice, individual animals; for effect on limb-use score: CIBP, female mice. On the procedure: as §1, §2, §3, §4, §5, §6, §7, §8, §9, §10, §11, §12
Assay [3] has the same test system. The assay can be described thus: CIBP model, static weight bearing. Particulars: for static weight bearing (Fig S7C): CIBP mice, individual animals; for effect on weight-bearing ratio: CIBP, female mice. On the procedure: as §1, §2, §3, §4, §5, §6, §7, §8, §9, §10, §11, §12
The subject of another assay is naive mice. In words: Capsaicin test (licking time). Also noted: capsaicin-induced licking time, individual mice: unit not given here. The following applies: for capsaicin-induced licking time, individual mice: female and male; for effect on capsaicin-induced licking time: naive mice, both sexes. How it is done: Naïve wildtype male and female mice (10 weeks of age) were habituated to handling and experimental set up for one week prior to data collection. […]
Mice were pretreated with 10 μmol/kg mPD5, 10 mg/kg morphine (RH Pharmacy, Denmark, Vnr. 475249), or PBS 45 min before habituation to observation container (glass cylinder surrounded by mirrors on 2 sides) for 15 min. Mice then received an intraplantar injection of 20 µl capsaicin (1.6 ug/paw) (sigma CAS Number:404-86-4, diluted with 1:1:8 solution of tween-20, 70% ethanol, and MilliQ water) in one hind paw and were reintroduced to the observation container. Mice were recorded for three min after i.pl. injection with capsaicin and euthanized the same day. Mice were scored manually for the amount of time spent paw licking within three min after capsaicin administration. […]
Females were weighed on a regular basis from removal of the males […]
Unless otherwise stated, all data were analysed using GraphPad Prism 9.4.1. and presented as mean +-SEM with the significance level set to p < 0.05. For locomotion and elevated plus maze, Ethovision XT 13 (Noldus) was used to track the distance travelled by each animal. For within group analysis (i.e., von Frey experiments), two-way ANOVA followed by Dunnett’s post hoc test was used. For between group analysis of multiple time points (i.e., locomotion experiments), two-way ANOVA was used without post hoc test due to lack of treatment significance in the ANOVA test. For the limb use experiment, data pre versus post treatment was analysed with a Kruskal Wallis test due to the non-parametric nature of the data. When analysing histograms of three groups or more (i.e., marble burying and elevated plus maze),

Take `CN1CC[C@]23c4c5ccc(O)c4O[C@H]2[C@@H](O)C=C[C@H]3[C@H]1C5` [morphine]: the “von Frey paw withdrawal threshold, individual animals (Fig 4C)” value in assay [1] (BL1 (baseline 1)) is 1.5 and 0.8 and 0.6 and 1 (2×) and 0.9 and 1.3 and 2 and 1.7 and 1.2; in assay [1] (BL2 (baseline 2)), 2.9 and 1.1 and 0.8 and 2.6 and 1.3 (2×) and 1.9 and 2.1 (2×) and 1.2; in assay [1] (Post (after treatment)), 1.1 (2×) and 1 (2×) and 1.2 (3×) and 0.9 and 1.3 (2×); in assay [1] (Pre (before treatment)), 0.6 (2×) and 0.2 (3×) and 0.4 (3×) and 0.5 and 0.3. In assay [1] (s.c. 5 mg/kg), the “effect on PWT” value is reported as “partial but significant increase”. Besides, the “limb use score (Fig S7B)” value in assay [2] (BL1) is 4; in assay [2] (BL2), 4; in assay [2] (Post (after treatment)), 3 (3×) and 1 (2×) and 2 (4×) and 0; in assay [2] (Pre (before treatment)), 2 (3×) and 1 (5×) and 0 (2×). Also, the “effect on limb-use score” value in assay [2] (s.c. 5 mg/kg) was “partial but significant increase”. The “static weight bearing (Fig S7C)” value in assay [3] (BL1) is 50.01 and 50.76 and 43.99 and 53.97 and 55.19 and 55.68 and 51.81 and 54.18 and 46.08 and 56.67; in assay [3] (BL2) it was 47.61 and 46.15 and 51.95 and 48.94 and 50.73 and 54.51 and 47.91 and 45.61 and 50.32 and 52.04; in assay [3] (Post (after treatment)) it was 30.29 and 34.04 and 29.99 and 42.43 and 37.09 and 45.12 and 35.66 and 34.06 and 42.67 and 36.03; in assay [3] (Pre (before treatment)), 24.27 and 31.25 and 36.25 and 30.33 and 34.01 and 33.28 and 32.53 and 29.97 and 30.04 and 32.35. For the same molecule, in assay [3] (s.c. 5 mg/kg), the “effect on weight-bearing ratio” value is given as “partial but significant increase”. Moreover, the “capsaicin-induced licking time, individual mice” value in the assay with naive mice (10 mg/kg) is listed as 0. In addition, the “effect on capsaicin-induced licking time” value in the assay on naive mice (s.c. 10 mg/kg) is recorded as “significantly reduced the licking time”.

On to `CCCCCCCCCCCCCC(=O)N(CCOCCOCCC(=O)N[C@@H](Cc1c[nH]cn1)C(=O)N[C@@H](Cc1c[nH]c2ccccc12)C(=O)N[C@@H](CC(C)C)C(=O)N[C@@H](CCCCN)C(=O)N[C@H](C(=O)O)C(C)C)CCOCCOCCC(=O)N[C@@H](Cc1c[nH]cn1)C(=O)N[C@@H](Cc1c[nH]c2ccccc12)C(=O)N[C@@H](CC(C)C)C(=O)N[C@@H](CCCCN)C(=O)N[C@H](C(=O)O)C(C)C` [mPD5, myristoyl-NPEG4-(HWLKV)2], for which, in assay [1] (s.c. 10 μmol/kg), the “effect on PWT” value was “no effect”. Moreover, the “effect on limb-use score” value in assay [2] (s.c. 10 μmol/kg) is on record as “no effect”. The “effect on weight-bearing ratio” value in assay [3] (s.c. 10 μmol/kg) was “no effect”. For the same molecule, the “capsaicin-induced licking time, individual mice” value was 12.96 and 9.28 and 8.67 and 18.61 with naive mice (10 umol/kg, female mice); 12.98 and 14.19 and 30.63 in the assay with naive mice (10 umol/kg, male mice). Besides, in the assay on naive mice (s.c. 10 μmol/kg), the “effect on capsaicin-induced licking time” value is “no effect on time spent licking”.
